Laboratory results as given in paper PMC9824012, “Exploring Antimicrobial Peptides Efficacy against Fire Blight (Erwinia amylovora)” (Plants, 2022).
Where two headings read alike, the source gives them in different places. Ends that are not written are not given here.

What was measured:
horse erythrocyte cells = type: cell-based
Description: (§1) The possible toxicity of the selected peptides was evaluated using immature pear fruits (cv. ‘Recchia falsa’), and horse erythrocyte cells, respectively, as plant and animal cell models. Briefly, six fruits for each peptide were pricked to approximately 5 mm deep and inoculated with 100 µL of the corresponding peptide at 50 and 250 µM concentrations. Fruits were kept in a chamber at room temperature for 5 days and repeatedly examined for the development of lesions. The peptide toxicity was measured as lesion diameter. Erythrocytes from a horse blood sample (provided by the University of Bari, Department of Veterinary Medicine, Valenzano, Italy) were used for the hemolytic assay. The erythrocytes were challenged with AMPs at 50 and 250 µM for 3 h and their possible hemolytic activity was observed under light microscope.

immature pear fruits = type: in vivo, pear (cv. 'Recchia falsa')
Description: as §1

Erwinia amylovora [1] = assay: In vivo antibacterial activity on inoculated immature pear fruits; set-up: species or system Erwinia amylovora on pear fruits (cv. 'Recchia falsa'); conditions: immature pears, 6 days at 25 °C, eight replicates
Description: To evaluate the in vivo antibacterial activity of selected AMPs, immature pear fruits (cv. ‘Recchia falsa’) were inoculated with E. amylovora and AMPs were applied. Briefly, ten-week-old pears were disinfected by immersion in a 70% ethanol solution for 2 min and then rinsed 3 times in sterile distilled water. Disinfected fruits were pricked to approximately 5 mm deep, with a sterile micropipette tip and inoculated with 20 µL of E. amylovora suspension (10^8 CFU/mL). Once the fruits had absorbed the bacteria, two concentrations of peptides (50 and 250 µM) were used; 20 µL of the concentration was introduced into the inoculation site and incubated in a humid chamber at 25 °C for 6 days. Fruits inoculated with sterile water and with E. amylovora suspension were included as controls. The experiment consisted of eight replicates per treatment, and symptoms were recorded at 6 days post-infection. The symptoms developed in immature pears (i.e., necrosis or bacterial exudates) were evaluated by measuring the diameter of necrotic lesions. The data were then analyzed using variance analysis (ANOVA), followed by Duncan’s multiple range test (α = 0.05), using SPSS statistical software (version 24.0, IBM, Armonk, N.Y., USA). All data were presented as mean values ± standard deviation (SD).

Erwinia amylovora [2] = assay: Fluorescence microscopy LIVE/DEAD BacLight (SYTO9/PI); type: cell-based, Erwinia amylovora strain PGL Z1; conditions: 1 h, calculated from SYTO9 and PI counts
Description: The bactericidal activity of the selected peptides (GF19, FG22, IL14, and KL29) was assessed by a test contact for 24 h, as described (Section 2.3), coupled with v-qPCR assay using the PMAxx™ (Biotium, Rome, Italy). PMAxx™ is a photo-reactive dye that binds to DNA with high affinity; upon cell lysis, it covalently attaches to disrupted DNA that cannot be amplified by PCR. This unique feature makes PMAxx™ extremely useful in selective detection of bacterial cells with intact plasma membranes by qPCR. Briefly, after 24 h at 25 °C, 200 µL of the mixture was transferred to a new tube and treated with PMAxx at a final concentration of 7.5 μM. Subsequently, samples were incubated in the dark at room temperature for 8 min, followed by photoactivation for 15 min. Genomic DNA of all samples was extracted using the cetyltrimethylammonium bromide (CTAB) method. v-qPCR was carried out in a thermocycler apparatus (Bio-Rad CFX96, BioRad, Milan, Italy), using Ea-lsc primers and conditions reported in Laforest et al.. The v-qPCR cycles consisted of an initial denaturation step of 95 °C for 5 min; 45 cycles of 95 °C for 30 s and 60 °C for 30 s with fluorescence readings at each cycle. For the FM assay, aliquots of E. amylovora suspension were incubated with 50 and 250 μM of selected peptides for 1 h at room temperature. The same protocol was used for X. campestris at different concentrations (100, 50, 25, 12.5, 6.25, 2 μM) using KL29 peptide, known for its potent bactericidal activity against X. campestris. The LIVE/DEAD ®BacLight™ viability kit (ThermoFisher Scientific, Milan, Italy) was used according to the manufacturer’s recommendation to assess the integrity of bacteria cells treated with the peptides at 1 h post-infection (Stocks, 2004). Briefly, 9 μL of sample was mixed with 0.5 μL of SYTO9 and 0.5 μL of propidium iodide (PI) for 15 min at room temperature in the dark. Photomicrographs were taken with a Nikon E800 microscope using a fluorescein isothiocyanate (480/30 excitation filter, DM505 dichroic mirror, 535/40 emission filter) and tetramethyl rhodamine isocyanate (546/10 excitation filter, DM575 dichroic mirror, 590 emission filter) fluorescence filter sets.
Supplementary Table S2. The statistical analysis consisted of counting the coloured spo ts (green: SYTO9 and red: PI) in the different channels of 10 replicas for the two concentrations of each antimicrobial peptide and the relative percentages of viable cells is calculated.
250 µM 50 µM % of viability
(1 picture or pasted object on this page, not shown here)

Erwinia amylovora [3] = assay: Spot test screening of AMPs on plates; type: cell-based, Erwinia amylovora strain PGL Z1; set-up: key to Spot test result at 1 mM / Spot test result at 500 µM / Spot test result at 250 µM / Spot test result at 100 µM / Spot test result at 50 µM / Spot test result at 25 µM / Spot test result at 12.5 µM: +: Clear plaque formation; -: no plaque formation; conditions: for Spot test result at 12.5 µM: 5 µL peptide at 12.5 µM spotted on plate with E. amylovora 10^8 CFU/mL; for Spot test result at 12.5 µM / Spot test result at 25 µM / Spot test result at 50 µM / Spot test result at 100 µM / Spot test result at 250 µM / Spot test result at 500 µM / Spot test result at 1 mM: overnight at 25 °C; for Spot test result at 25 µM: 5 µL peptide at 25 µM spotted on plate with E. amylovora 10^8 CFU/mL; for Spot test result at 50 µM: 5 µL peptide at 50 µM spotted on plate with E. amylovora 10^8 CFU/mL; for Spot test result at 100 µM: 5 µL peptide at 100 µM spotted on plate with E. amylovora 10^8 CFU/mL; for Spot test result at 250 µM: 5 µL peptide at 250 µM spotted on plate with E. amylovora 10^8 CFU/mL; for Spot test result at 500 µM: 5 µL peptide at 500 µM spotted on plate with E. amylovora 10^8 CFU/mL; for Spot test result at 1 mM: 5 µL peptide at 1 mM spotted on plate with E. amylovora 10^8 CFU/mL; for Spot test, killing of E. amylovora at 50 µM (in words): peptide 50 µM
Description: (§2) The bacterial material consisted of E. amylovora strain PGL Z1, isolated in 2013 from pear in Apulia region (Italy), and Xanthomonas campestris pv. campestris strain CFBP 1710 (X. campestris), isolated in 1975 from Brassica oleracea var. botrytis in France, which was used as a control to investigate the bactericidal activity and action mode of AMPs against two different bacteria. The bacterial strains were cultured on yeast extract peptone glucose agar (YPGA) and broth (YPG) media, consisting of 0.5% yeast extract, 0.5% peptone, 1% glucose and 1.5% agar. E. amylovora and X. campestris cell suspensions were prepared in sterile distilled water and the suspensions were adjusted to an optical density at 600 nm (OD600) of 0.1, which corresponds approximately to 10^8 CFU/mL.
The nine AMPs were screened using the spot test to select those with the best antibacterial activity against E. amylovora. Briefly, 300 µL of E. amylovora suspension (10^8 CFU/mL) was poured into the plates and maintained at room temperature for 15 min. Subsequently, 5 μL from each peptide at different concentrations (1000, 500, 250, 100, 50, 25 and 12.5 μM) was spotted onto the surface of the plates, followed by overnight incubation at 25 °C. Sterile distilled water was spotted in the plates as a control.
Supplementary Table S1. Results of the spot tests for the nine antimicrobial peptides used against Erwinia
Ascaphin-8 GF-19 + + + + + - -
DASamP1 FF-13 + + + - - - -
DASamP2 IL-14 + + + + + - -
Lycotoxin I IL-25 + + + + - - -
Maculatin 1.3 GF-21 + + + - - - -
Piscidin 1 FG-22 + + + + + - -
BP178 KL-29 + + + + + + -
RIJK2 RV-12 + + + - - - -
+: Clear plaque formation; -: no plaque formation.

Erwinia amylovora [4] = conditions: 24 h
Description: as §2
Briefly, 20 µL from each concentration (50 and 250 µM) was mixed with 180 µL of E. amylovora suspension (YPG) and incubated at 25 °C for 24 h. Six OD600 nm measures were taken over 24 h using the NanoDrop™ One/OneC Microvolume UV-Vis Spectrophotometer (ThermoFisher Scientific, Waltham, MA, USA).

[5] = 20 µL peptide at 50 µM into inoculation site
[6] = 20 µL peptide at 250 µM into inoculation site
[7] = peptide 50 and 250 µM, 3 h, light microscope
[8] = 100 µL peptide at 50 and 250 µM, 5 days at room temperature, six fruits per peptide

Substance	Toxicity (hemolytic or cytotoxic activity) on horse erythrocytes (in words) (horse erythrocyte cells)	Toxicity (hypersensitive or cytotoxic activity) on pear fruits (in words) (immature pear fruits; in vivo)	Reduction of fire blight symptoms (necrotic lesion diameter) (Erwinia amylovora [1]; [5])	Reduction of fire blight symptoms (necrotic lesion diameter) (Erwinia amylovora [1]; [6])	Toxicity (hemolytic or cytotoxic activity) on horse erythrocytes (in words) (horse erythrocyte cells; [7])	% of viability (Erwinia amylovora [2]; peptide 50 µM)	% of viability (Erwinia amylovora [2]; peptide 250 µM)	Toxicity (hypersensitive or cytotoxic activity) on pear fruits (in words) (immature pear fruits; [8])	Spot test result at 12.5 µM (Erwinia amylovora [3])	Spot test result at 25 µM (Erwinia amylovora [3])	Spot test result at 50 µM (Erwinia amylovora [3])	Spot test result at 100 µM (Erwinia amylovora [3])	Spot test result at 250 µM (Erwinia amylovora [3])	Spot test result at 500 µM (Erwinia amylovora [3])	Spot test result at 1 mM (Erwinia amylovora [3])	Spot test, killing of E. amylovora at 50 µM (in words) (Erwinia amylovora [3])	Inhibition of E. amylovora growth (OD600) (Erwinia amylovora [4]; 50 µM)	Inhibition of E. amylovora growth (OD600) (Erwinia amylovora [4]; 250 µM)
FFHHIFRGIVHVGKTIHRLVTG [FG22, Piscidin 1] [listing 1 of 2 here]	toxicologically safe for plant and animal cells	toxicologically safe for plant and animal cells																
IKWKKLLRAAKRIL-NH2 [IL14, DASamP2]			61%	76%	toxicologically safe for plant and animal cells	15%	48%	toxicologically safe for plant and animal cells	-	-	+	+	+	+	+	could kill E. amylovora		
GFKDLLKGAAKALVKTVLF-NH2 [GF19, Ascaphin-8]			43%	48%	toxicologically safe for plant and animal cells	44%	64%	toxicologically safe for plant and animal cells	-	-	+	+	+	+	+	could kill E. amylovora		
FFHHIFRGIVHVGKTIHRLVTG [FG22, Piscidin 1] [listing 2 of 2 here]			48%	65%		28%	49%		-	-	+	+	+	+	+	could kill E. amylovora	~60%	92%
FFGKVLKLIRKIF-NH2 [FF13, DASamP1, synthetic antimicrobial peptide, synthesized by ProteoGenix]									-	-	-	-	+	+	+			
